# Measured values: the supplement of paper PMC10949913
# Experiments:
# NCI-H295R [1] = test: ExcessHSA synergy score with TAK-243; higher = less synergy (negative = synergistic); conditions: combined with: TAK-243 (MLN-7243) matrix, 9-point 1:2 dilution
# Description: (§1)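 Each drug was tested at 9 points with 1:2 dilution; viability was read by CellTiter-Glo as in the single-agent screen. Synergy is scored as ExcessHSA (sum of excess over highest single agent; negative = synergy) and the Beta interaction parameter (<1 synergy).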
# CU-ACC1 [2] = test: as above; conditions: combined with: TAK-243 (MLN-7243) matrix, 9-point 1:2 dilution
# Description: as §1
# CU-ACC2 [3] = test: area under concentration-response curve (viability) (AUC (a.u.)); higher = less active; conditions: 48 h
# Method in brief: (§2)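 For each of three adrenocortical carcinoma cell lines, 500–1,000 cells/well were placed in 5 µL medium in 1,536-well plates. A 23 nL volume of every library compound was added at 11 concentrations. Following 48 h, a 15-minute room-temperature CellTiter-Glo step preceded luminescence reading, with signals normalised per plate to vehicle and empty-well controls. AC50 and area under the curve were derived by curve fitting, retaining only inhibitory or non-responding curve classes.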
# NCI-H295R [4] = test: as above; conditions: 48 h
# Method in brief: as §2
# CU-ACC1 [5] = test: as above; conditions: 48 h
# Method in brief: as §2
# CU-ACC2 [6] = test: AC50 viability; higher = less potent; conditions: 48 h
# Method in brief: as §2
# NCI-H295R [7] = test: AC50 viability; higher = less potent; conditions: 48 h
# Method in brief: as §2
# CU-ACC1 [8] = test: AC50 viability; higher = less potent; conditions: 48 h
# Method in brief: as §2
SMILES,ExcessHSA synergy score with TAK-243 (NCI-H295R [1]),ExcessHSA synergy score with TAK-243 (CU-ACC1 [2]),area under concentration-response curve (CU-ACC2 [3]),area under concentration-response curve (NCI-H295R [4]),area under concentration-response curve (CU-ACC1 [5]),AC50 viability (CU-ACC2 [6]) [µM],AC50 viability (NCI-H295R [7]) [µM],AC50 viability (CU-ACC1 [8]) [µM]
Cc1cnc(CNC(=O)c2c(=O)c3ccc(N4CCCN(C)CC4)nc3n3c2sc2ccccc23)cn1 [CX-5461],895,210,,,,,,
Nc1ncn([C@@H]2O[C@H](CO)[C@@H](O)[C@H]2O)c(=O)n1 [5-Azacytidine],360,,,,,,,
CC1(C)CC[C@]2(NC(=O)C(C)(F)F)CC[C@]3(C)[C@H](C(=O)C=C4[C@@]5(C)C=C(C#N)C(=O)C(C)(C)[C@@H]5CC[C@]43C)[C@@H]2C1 [Omaveloxolone (RTA-408)],323,367,,,,,,
CCS(=O)(=O)c1cc2cc(C[C@](O)(CC(C)(C)c3ccc(F)cc3C(N)=O)C(F)(F)F)[nH]c2cn1,885,653,,,,,,
C=CC(=O)N1CC/C(=C\c2ccc(F)c([N+](=O)[O-])c2)C(=O)/C(=C/c2ccc(F)c([N+](=O)[O-])c2)C1 [VLX-1570],-147,79.8,,,,,,
C[C@H]1CCN1c1nc(N2C[C@@H]3[C@@H](CC(=O)O)[C@@H]3C2)cc(C(F)(F)F)n1 [Ketohexokinase inhibitor 1],49.1,-31.2,,,,,,
CCN(c1cc(-c2ccc(CN3CCOCC3)cc2)cc(C(=O)NCc2c(C)cc(C)[nH]c2=O)c1C)C1CCOCC1,,-215,,,,,,
C#CCC(Cc1cnc2nc(N)nc(N)c2n1)c1ccc(C(=O)N[C@@H](CCC(=O)O)C(=O)O)cc1 (stereo not given in full) [Pralatrexate],-57.8,137,,,,,,
Cc1cc(Oc2ccc3nc(COc4ccc(CC5SC(=O)NC5=O)cc4)n(C)c3c2)cc(C)c1N (stereo not given) [Efatutazone],-69.9,-278,,,,,,
CC(C)[C@@H](CS(=O)(=O)C(C)C)N1C(=O)[C@@](C)(CC(=O)O)C[C@H](c2cccc(Cl)c2)[C@H]1c1ccc(Cl)cc1 [AMG 232],236,-130,,,,,,
O=C1NC(=O)C(c2cnc3ccccn23)=C1c1cn2c3c(cc(F)cc13)CN(C(=O)N1CCCCC1)CC2,305,432,,,,,,
CS(=O)(=O)c1ccc(C(=O)Nc2ccc(Cl)c(-c3ccccn3)c2)c(Cl)c1 [Vismodegib],-5.69,-206,,,,,,
COc1cc2c(cc1-c1c(C)noc1C)cc(C)c(=O)n2Cc1ccccn1 [ODM-207],-3.62,182,,,,,,
CN(Cc1cnc2nc(N)nc(N)c2n1)c1ccc(C(=O)N[C@@H](CCC(=O)O)C(=O)O)cc1 [Methotrexate],591,544,,,,,,
CS(=O)(=O)c1ccc(Oc2cc(F)cc(C#N)c2)c2c1[C@H](O)[C@H](F)[C@@H]2F [PT-2977],801,217,,,,,,
CC(C)NC[C@@H](C(=O)N1CCN(c2ncnc3c2[C@H](C)C[C@H]3O)CC1)c1ccc(Cl)cc1 [Ipatasertib],-60.3,85.6,,,,,,
Nc1nc2[nH]cc(CCc3ccc(C(=O)N[C@@H](CCC(=O)O)C(=O)O)cc3)c2c(=O)[nH]1,,147,,,,,,
Nc1nc2[nH]cc(CCc3ccc(C(=O)N[C@@H](CCC(=O)O)C(=O)O)cc3)c2c(=O)[nH]1 [Pemetrexed],397,,,,,,,
Nc1ncn([C@@H]2O[C@H](CO)[C@@H](O)[C@H]2O)c(=O)n1 [5-Azacitidine],,346,,,,,,
CCN(c1cc(-c2ccc(CN3CCOCC3)cc2)cc(C(=O)NCc2c(C)cc(C)[nH]c2=O)c1C)C1CCOCC1 [Tazemetostat],-203,,,,,,,
CN(c1ncccc1CNc1nc(Nc2ccc3c(c2)CC(=O)N3)ncc1C(F)(F)F)[S+](C)(=O)[O-],,,422,430,404,6.61,14.8,13.2
O=C(/C=C/c1cccc([S+](=O)([O-])Nc2ccccc2)c1)NO,,,429,404,362,5.25,3.72,3.72
Nc1cc(C(F)(F)F)c(-c2nc(N3CCOCC3)nc(N3CCOCC3)n2)cn1,,,413,441,381,16.6,3.72,5.25

SMILES,ExcessHSA synergy score with TAK-243 (NCI-H295R [1]),ExcessHSA synergy score with TAK-243 (CU-ACC1 [2]),area under concentration-response curve (CU-ACC2 [3]),area under concentration-response curve (NCI-H295R [4]),area under concentration-response curve (CU-ACC1 [5]),AC50 viability (CU-ACC2 [6]) [µM],AC50 viability (NCI-H295R [7]) [µM],AC50 viability (CU-ACC1 [8]) [µM]
CC(=O)NCC(=O)N1[C@@H]2CC[C@H]1c1ccc(Nc3ncc(C(F)(F)F)c(NC4CCC4)n3)cc12,,,443,459,502,10.5,16.6,18.6
CC(C)NC(=O)COc1cccc(-c2nc(Nc3ccc4[nH]ncc4c3)c3ccccc3n2)c1,,,507,523,481,3.72,9.34,13.2
CCCCCCC(C)(C)C1=CC2=C([C@H]3CC(=C/CC3C(C)(C)O2)\CO)C(=C1)O (stereo not given in full),,,497,458,442,5.9,4.17,5.9
Cc1ccc(-c2ccc3ncc4c(c3n2)n(C2CCN(C(=O)[C@H](C)O)CC2)c(=O)n4C)cn1,,,492,394,363,0.263,0.295,0.263
Cc1cc(OCCCc2c3n(c4c(-c5c(C)nn(C)c5C)c(Cl)ccc24)[C@H](C)CN(c2cn(C)c4ccc(C(=O)O)cc24)C3=O)cc(C)c1Cl,,,570,445,367,16.6,2.95,16.6
CO[C@H]1/C=C\C=C(\C)C(=O)NC2=CC(=O)C(NCCN(C)C)=C(C[C@@H](C)C[C@H](OC)[C@H](O)[C@@H](C)/C=C(/C)[C@@H]1OC(N)=O)C2=O,,,460,451,335,0.833,3.72,1.66
CC[C@@H](C)Nc1cc(C(=O)NC2CC3CC[C@@H](C2)N3c2ccc(C(=O)C3CC3)cn2)c(C)cc1C(N)=O (stereo not given in full),,,405,408,330,0.118,0.59,0.59
CC[C@H]1/C=C\C=C/C[C@@H](C)[C@H](O)[C@@](C)(O)C(=O)[C@@H](C)[C@H](O)[C@@H](C)C(=O)[C@@H](C)[C@H](O)[C@@H](C)/C=C/C(=O)O[C@@H]2[C@H](C)[C@H](CC1)O[C@]1(CC[C@H](C)[C@H](C[C@@H](C)O)O1)[C@H]2C,,,402,326,193,7.42,1.32,0.00186
COc1ccc(C(=O)c2c(C)n(CCN3CCOCC3)c3ccccc23)cc1,,,431,402,389,5.25,5.25,10.5
CC(C)(Cc1ccc2ccccc2c1)NC[C@@H](O)COc1cccc(Cl)c1C#N,,,530,480,460,7.42,9.34,9.34
NC(=O)c1cnc(N[C@@H]2CCCC[C@@H]2N)nc1Nc1cccc(-n2nccn2)c1,,,572,519,492,20.9,20.9,23.5
C=CC(=O)Nc1cc2c(Nc3ccc(F)c(Cl)c3)ncnc2cc1C#CC(C)(C)N1CCN(C)CC1,,,520,477,307,7.42,7.42,10.5
COc1cc(O)c2c(c1)C1OC1C[C@H](O)[C@H](O)C(=O)/C=C\C[C@H](C)OC2=O (stereo not given in full),,,492,435,429,16.6,14.8,6.61
CCN(CC)Cc1ccc2cc(COC(=O)Nc3ccc(C(=O)NO)cc3)ccc2c1,,,390,382,365,4.68,9.34,3.72
O=C(/C=C/c1ccc2ccc(C(F)(F)F)cc2n1)c1ccncc1,,,439,402,365,2.95,3.72,3.72
Nc1ccccc1NC(=O)c1ccc(CNC(=O)OCc2cccnc2)cc1,,,523,440,422,14.8,3.72,3.72
Cc1cnc(Nc2ccc(OCCN3CCCC3)cc2)nc1Nc1cccc([S+](=O)([O-])NC(C)(C)C)c1,,,547,501,491,8.33,8.33,16.6
Cc1ccc(C(=O)Nc2cccc(C(F)(F)F)c2)cc1-c1ccc2nc(NCCN3CCOCC3)ncc2c1,,,576,546,481,18.6,18.6,10.5
CN(C)C/C=C/C(=O)Nc1cc2c(Nc3ccc(F)c(Cl)c3)ncnc2cc1O[C@H]1CCOC1,,,238,232,231,0.661,1.32,4.68
C[C@@]12OC(=O)[C@@]1(NC(=O)[C@@H]2CCCl)[C@@H](O)[C@H]\3CCC\C=C3,,,437,435,305,1.05,0.833,0.833
CN(C)CCOc1ccc(-c2nc(-c3ccncc3)c(-c3ccc4c(c3)CC/C4=N\O)[nH]2)cc1,,,521,440,398,20.9,14.8,16.6
CO[C@H]1CCC(O[C@H]2C[C@H]([C@]3(C)CC[C@]4(C[C@H](O)[C@@H](C)[C@@H]([C@@H](C)/C=C(\C)C(=O)[C@H](C)C[C@H](C)C(=O)[O-])O4)O3)O[C@]3(O[C@@H]([C@H]4O[C@@](O)(CO)[C@H](C)C[C@@H]4C)C[C@@H]3C)[C@@H]2C)O[C@@H]1C (stereo not given in full),,,392,440,400,2.35,2.63,1.48
CC[C@H]1CN2CCc3cc(OC)c(OC)cc3[C@@H]2C[C@@H]1C[C@H]1NCCc2cc(OC)c(OC)cc21,,,463,412,366,0.934,1.66,0.59
